In patent US20200270310A1, “MAFG AS A POTENTIAL THERAPEUTIC TARGET TO RESTORE CHEMOSENSITIVITY IN PLATINUM-RESISTANT CANCER CELLS” (FUNDACÓIN PARA LA INVESTIGACIÓN BIOMÉDICA DEL HOSPITAL …, priority 2017, published 2020):

Experiments:
H23R cells = assay: ROS production after CDDP exposure, resistant cells; format: cell-based, human
Protocol: (§1) FIG. 2. Viability assays and Reactive Oxygenated Species detection after CDDP treatment in H23 cell lines. (A) Viability to CDDP in H23S (left) and H23R (right) at 24, 48 and 72 hours and 6 concentrations of CDDP measured by MTT assay. (B) Increment of ROS production in H23S (left) and H23R (right) after 24, 48 and 72 hours of CDDP treatment. $: 72h (vs Basal).
(§2) H23/A2780 cells were cultured in 96-well black plates at density of 10,000 cells/well. Cells were treated with 6 different doses of CDDP for 24, 48 and 72 h in RPMI containing 10% FBS. Then treatments were removed and cells were loaded with the fluorescent probe 2′,7′-dichlorodihydrofluorescein diacetate (H2DCFDA) (10 μM) for 45 minutes in RPMI medium (FBS free). Cells were washed twice with RPMI (10% FBS), and fluorescence was recorded in a Fluostar Optima, each hour, over 4 hours period. […] ROS production was calculated dividing the mean H2DCFDA fluorescence by the mean viability. […] All experiments included cells treated with RPMI alone (Basal), and one well without cells as fluorescence basal.
(§3) H23/A2780 cells were cultured in 96-well black plates at density of 10,000 cells/well. […] Cells were washed twice with RPMI (10% FBS), and fluorescence was recorded in a Fluostar Optima at 520 nm after excitation at 485 nm. […] ROS production was calculated dividing the mean H2DCFDA fluorescence by the mean viability. […]

LoVo cells = assay: Viability to CDDP; format: cell-based, human
Excerpt: (§4) Fifteen human cancer cell lines were purchased from ATCC (Manassas, Va.) or ECACC (Sigma-Aldrich, Spain) and cultured as recommended. The CDDP-resistant variants A2780R and OVCAR3R were selected after a final exposure to […] cisplatin, respectively (Farma Ferrer, Spain), as previously described for H23R and H460R variants The additional 11 human cell lines, PC-3, LNCAP, H727, HT29, A549, BT474, LoVo, IMIM-PC-2, SKOV3, SW780 and IMR90, were used for further validations. For viability assays cells were treated with increasing doses of CDDP. The epigenetic reactivation drugs 5Aza-2deoxycytidine (5Aza-dC) and trichostatin A (TSA) (Sigma-Aldrich, Spain) were used at […] and at 300nM respectively.

IMIM-PC2 cells = assay: Viability to CDDP; format: cell-based, human
Excerpt: as §4

[1] = test system: A2780 ovarian cancer cells; assay: ROS production after CDDP exposure, ovarian cells; format: cell-based, human
Protocol: as §1, with “3.” for “2.”, “A2780” for “H23”, “A2780S” for “H23S”, “A2780R” for “H23R”
as §2, §3

MAFG-Myc = target: T1, MAFG-Myc (Homo sapiens, UniProt O15525); assay: Enzyme-linked oligonucleotide assay (ELONA) of aptamers and aptamer populations; format: binding
T1 construct: Myc (C); DDK (FLAG)
Protocol: FIG. 4. Analysis of the affinity of the aptamers against MAFG. (A) Quantification of aptamer-MAFG complexes by qPCR comparing absence (dot pattern) or presence (filled pattern) of MAFG protein. […] Bars represent the mean±SEM of 2-3 experiments (B) Specificity binding assay of aptamers to MAFG performed by ELONA. MAFG-myc was plated at 50ng/well in 96-well plates followed by incubation with 5′ digoxigenin-labeled aptamers from RND40, SEL3MAFG and SEL6MAFG. The figure represents the mean±SEM of 3 independent experiments. p<0.01. (C) Aptacytochemistry in HEK-293T cells transiently transfected with MAFG-myc. Cells overexpressing MAFG were incubated with 5′ Alexafluor 488-conjugated aptamers from RND40, SEL3MAFG or SEL6MAFG (upper panel) or Myc antibody (lower panel). Confocal microscopy images corresponding to the staining of nuclei with Hoechst (blue), antibodies (red), and aptamers (green) are shown. Arrowhead indicates positive cells. Bar=13 μm. (D) Study of individual aptamers affinity performed by ELONA. Recombinant MAFG was plated at 50 ng/well in 96-well plates followed by incubation with 5′ digoxigenin-labeled individual aptamers apMAGF3F, apMAFG6F and apMAFG11F. The figure represents the mean±SD of 2 independent experiments. (E) Secondary structures of aptamers apMAGF3F, apMAFG6F and apMAFG11F obtained by bioinformatics sequence analysis using the mFold software taking into account the lower free energy (AG).
(ii) Enzyme-linked oligonucleotide assay (ELONA): Aptamers were labeled by PCR using 5′ digoxigenin-labeled F3/5′ digoxigenin-labeled R3 primers (IBA Life Sciences). To assess the enrichment of the selected population and the affinity of the individual aptamers for the target, MAFG-Myc (50 ng) was incubated with the rounds 3, 6 of aptamers or the RND40 library. OD405nm values were determined using a SpectraFluor microplate reader (TECAN, Barcelona, Spain).

[2] = target: T2, MAFG in H23S and H23R cells (Homo sapiens, UniProt O15525); assay: Aptacytochemistry with digoxigenin-labeled individual aptamers; format: cell-based
T2 construct: endogenous in cells; host or cells: H23S and H23R (NSCLC cells, fixed)
Protocol: Following the methodology described above, H23R cells were incubated with 6 pmol of digoxigenin-labeled aptamers (IBA Life Sciences) in selection buffer for 1 hour at room temperature. Subsequently, cells were washed three times with PBS and incubated with anti-digoxigenin conjugated with 5′ AlexaFluor 488 (R&D systems, USA) at 1/500 dilution in blocking buffer for 1 hour at room temperature, as secondary antibody. Finally, the cells were mounted on glass slides using glycerol-buffer containing p-phenylenediamine and 1/750 dilution of Dapi for nuclear staining. Controls were made by omitting the aptamer. Colocalization was assessed by confocal microcopy as described in (iii).

Molecule	ROS production versus basal untreated cells (H23R cells; 3.00 μg/ml CDDP)	ROS after treatment with the drug (H23R cells; Example 1)	IC50 of CDDP (LoVo cells)	IC50 of CDDP (IMIM-PC2 cells)	differences in ROS production between sensitive and resistant cells [1]	affinity against MAFG (MAFG-Myc; Example 1, individual aptamers)	binding capacity to the target (MAFG-Myc; Example 3, individual sequences from SEL6MAFG)	binding signal relative to BSA protein (MAFG-Myc; individual sequences from SEL6MAFG)	cellular localization of the aptamer [2]	number of dots per nucleus, H23R versus H23S [2]
[NH2][Pt]([NH2])([Cl])[Cl] [CDDP, Cisplatin]	159%	no changes	over 2 μg/ml	over 2 μg/ml	confirmed	–	–	–	–	–
GCGGATGAAGACTGGTGTCGATGCATGTGTAGTGCATTTCGAGCCGTTCTATTGGTGTGCCCTAAATACGAGCAAC (nucleic acid, chemistry not given here, DNA aptamer selected against the MAFG protein by SELEX) GCGGATGAAGACTGGTGTCGATGCATGTGTAGTGCATTTCGAGCCGTTCTATTGGTGTGCCCTAAATACGAGCAAC	–	–	–	–	–	high affinity	high binding capacity to the target in the nanomolar range	four times that of the BSA protein	preferentially located at the nuclei	remarkable differences
